The test system of series [1] is S. aureus SA-K1902 (norA-). Put plainly: MIC evaluation against SA-K1902. In kind it is cell-based, Staphylococcus aureus. The conditions noted are these: Staphylococcus aureus. The source says:
Conversely, interesting results were obtained against SA‐K2378, which overexpresses the norA gene (Table 2). […] This corroborates the hypothesis that their activity is strictly related to NorA EP inhibition.
In this study, the S. aureus strains SA‐1199B (overexpressing norA) and its isogenic parent SA‐1199 (wild type), the pair SA‐K1902 (norA‐depleted) and SA‐K2378 (complemented with a pCU1 plasmid harboring the norA promoting and coding region from SA‐1199B), were used to test EPI activity as described in a previous study. Furthermore, the S. aureus ATCC 29213 was used as the reference strain in MIC determination experiments.

A short description of series [2]: MTT cytotoxicity assay on A549. The conditions noted are these: human, A549 cells; for viability at 72 h, 12.5 µg/mL: A549, 12.5 μg/mL; for viability at 72 h, 12.5 µg/mL / viability at 72 h, 25 µg/mL / viability at 72 h, 50 µg/mL / viability at 72 h, 100 µg/mL: read-out: Cytotoxicity (% cell viability); for viability at 72 h, 25 µg/mL: A549, 25 μg/mL; for viability at 72 h, 50 µg/mL: A549, 50 μg/mL; for viability at 72 h, 100 µg/mL: A549, 100 μg/mL. The class given is cell-based. As to the method:
The MTT assay was performed on two human ATCC cell lines, that is, […] (CCL‐185) and MCF7 (HTB‐22), to test the potential cytotoxic effect of the compounds, after 72 h exposure, as previously described. Each compound was tested at concentrations ranging from 12.5 to 100 μg/mL. Untreated cells were considered as controls. The percentage of viable cells was calculated as follows: % Cell viability = 100 × treated well absorbance/untreated control well absorbance. All assays were performed once in technical quadruplicate.

The test system of series [3] is Staphylococcus aureus SA-K2378 biofilm. The class given is cell-based. The conditions noted are these: for Biofilm formation (%): CPX 1/4 X MIC + EPI 1,6 µg/ml; for reduction in biofilm formation: EPI at 1.6 µg/mL with CPX at ½ MIC, vs untreated control. From the text: The formation of biofilms is a significant contributor to the development of AMR [1, 26, 27]. This is due to the fact that biofilms provide a protective environment for bacteria, thereby rendering them more resilient to the effects of common antibacterial agents. Over the years, several investigations have been conducted to study the role of EPs in the various stages of microbial biofilm formation. However, a definitive answer regarding the potential role of EPs in this microbial pathway remains elusive. While some studies have reported a negative effect of certain EPs on biofilm formation, others have highlighted the promising role of EPIs in limiting biofilm formation and enhancing the efficacy of antibiotics under biofilm conditions.
The biofilm production by SA‐K1902 and SA‐K2378 strains was analyzed in flat 96‐well microtiter plates as previously described, with some modifications. […] The microplates were incubated at 37°C for 24 h in static conditions. After incubation, the biofilms were washed three times with distilled water, dried at 60°C for 1 h, and stained with 0,1% crystal violet for 10 min. After staining, the crystal violet was removed and the wells were washed three times with water, dried at 37°C for 30 min, and the bound crystal violet was solubilized with 96% ethanol in shaking conditions. At the end of the destaining, the absorbance (570 nm) of the solutions in each well was measured using the FLUOstar Omega plate reader (BMG‐LABTECH, Germany) to quantify the biofilm produced in each condition compared with the control (biofilm produced by the strain without any compound/antibiotic). Biofilm assays were performed in triplicate for each condition.

In brackets after ≈: the same amount, converted by molar mass.

By MIC is commonly meant the lowest concentration that inhibits growth of the organism. A high value points to a need for much substance. As a reminder, the viability is a read-out of living cells in per cent, often relative to untreated cells. In turn, `O=S1(=O)Nc2c(-c3ccc(Cl)cc3)nn(-c3ccccc3)c2-c2ccccc21` [Compound 3] displayed an MIC in series [1] of more than 50 µg/mL. In series [2], the viability at 72 h, 12.5 µg/mL was 94 ± 24%; the viability at 72 h, 25 µg/mL is 99 ± 20%; the viability at 72 h, 50 µg/mL amounted to 101 ± 24%; the viability at 72 h, 100 µg/mL came out at 34 ± 10%. Besides, in series [3], the “Biofilm formation (%)” value is on record as “positive synergistic effect” and the “reduction in biofilm formation” value is reported as 83%.

The term CC50 denotes the concentration at which the toxic effect on the cells reaches its halfway point. Low values mean greater toxicity to the cells, high ones lower toxicity to the cells. Molecule `CN1c2c(-c3ccc(Cl)cc3)n[nH]c2-c2ccccc2S1(=O)=O` [Compound 10, 3‐(4‐Chlorophenyl)‐4‐methyl‐1,4‐dihydropyrazolo[4,3‐c][1,2]benzothiazine 5,5‐dioxide] yielded an MIC in series [1] of 12.5 µg/mL (≈ 36.1 µM). In series [2], the viability at 72 h, 12.5 µg/mL is 97 ± 2%; the viability at 72 h, 25 µg/mL was 45 ± 3%; the viability at 72 h, 50 µg/mL worked out at 7%; the viability at 72 h, 100 µg/mL is 7 ± 2%. The molecule further gave a CC50 at 72 h in series [2] (A549, MTT) of approximately 25 µg/mL (≈ 72.3 µM). Besides, in series [3], the “Biofilm formation (%)” value is reported as “untreated control‐like condition” and the “reduction in biofilm formation” value came out at 54%.

Values taken from PMC12089509, “NorA Efflux Pump Inhibitors: Expanding SAR Knowledge of Pyrazolo[4,3‐c][1,2]benzothiazine 5,5‐Dioxide Derivatives” (Archiv Der Pharmazie, 2025).
